Our source for the T/C, T-C and Survivors values is ChEMBL document CHEMBL1123145, “Synthesis of pyrrolizidine alkaloids indicine, intermedine, lycopsamine, and analogues and their N-oxides. Potential antitumor agents” (1985).

In general, T/C refers to the ratio of treated to control.

Assay type in all cases: functional, Mus musculus
Assay [1] concerns P388. Put plainly: Survival rate of the animals determined for antitumor activity against P388 Lymphocytic Leukemia system at a dose of 17 mg/kg.
For assay [2], the system named is P388. Briefly: Survival rate of the animals determined for antitumor activity against P388 Lymphocytic Leukemia system at a dose of 34 mg/kg.
Assay [3] deals with P388. Briefly: Weight difference observed in survivors treated for antitumor activity against P388 Lymphocytic Leukemia system at a dose of 34 mg/kg.
Assay [4] deals with P388. Put plainly: Survival rate of the animals determined for antitumor activity against P388 Lymphocytic Leukemia system at a dose of 8.5 mg/kg.
Assay [5] has as its system P388. Put plainly: Number of Survivors determined for antitumor activity against P388 Lymphocytic Leukemia system on day 5 at a dose of 34 mg/kg (6 out of 6).
Assay [6] concerns P388. Put plainly: Weight difference observed in survivors treated for antitumor activity against P388 Lymphocytic Leukemia system at a dose of 68 mg/kg.
Assay [7] concerns P388. Briefly: Survival rate of the animals determined for antitumor activity against P388 Lymphocytic Leukemia system at a dose of 68 mg/kg.
The test system of assay [8] is P388. Put plainly: Number of Survivors determined for antitumor activity against P388 Lymphocytic Leukemia system on day 5 at a dose of 68 mg/kg(6 out of 6).
For assay [9], the system named is P388. Put plainly: Number of Survivors determined for antitumor activity against P388 Lymphocytic Leukemia system on day 5 at a dose of 8.5 mg/kg(6 out of 6).
For assay [10], the system named is P388. Briefly: Weight difference observed in survivors treated for antitumor activity against P388 Lymphocytic Leukemia system at a dose of 17 mg/kg.
Assay [11] concerns P388. Put plainly: Weight difference observed in survivors treated for antitumor activity against P388 Lymphocytic Leukemia system at a dose of 8.5 mg/kg.
The subject of assay [12] is P388. Briefly: Number of Survivors determined for antitumor activity against P388 Lymphocytic Leukemia system on day 5 at a dose of 17 mg/kg (6 out of 6).
The test system of assay [13] is P388. Put plainly: Survival rate of the animals determined for antitumor activity against P388 Lymphocytic Leukemia system at a dose of 480 mg/kg.
Assay [14] concerns P388. Put plainly: Weight difference observed in survivors treated for antitumor activity against P388 Lymphocytic Leukemia system at a dose of 60 mg/kg.
Assay [15] deals with P388. Put plainly: Number of Survivors determined for antitumor activity against P388 Lymphocytic Leukemia system on day 5 at a dose of 60 mg/kg (6 out of 6).
Assay [16] concerns P388. Put plainly: Weight difference observed in survivors treated for antitumor activity against P388 Lymphocytic Leukemia system at a dose of 120 mg/kg.
Assay [17] relates to P388. Put plainly: Weight difference observed in survivors treated for antitumor activity against P388 Lymphocytic Leukemia system at a dose of 240 mg/kg.
Assay [18] has as its system P388. Put plainly: Survival rate of the animals determined for antitumor activity against P388 Lymphocytic Leukemia system at a dose of 120 mg/kg.
Assay [19] relates to P388. Put plainly: Survival rate of the animals determined for antitumor activity against P388 Lymphocytic Leukemia system at a dose of 240 mg/kg.
The test system of assay [20] is P388. Put plainly: Survival rate of the animals determined for antitumor activity against P388 Lymphocytic Leukemia system at a dose of 30 mg/kg.
Assay [21] relates to P388. Put plainly: Survival rate of the animals determined for antitumor activity against P388 Lymphocytic Leukemia system at a dose of 15 mg/kg.
The subject of assay [22] is P388. Briefly: Number of Survivors determined for antitumor activity against P388 Lymphocytic Leukemia system on day 5 at a dose of 120 mg/kg (6 out of 6).
Assay [23] concerns P388. Briefly: Number of Survivors determined for antitumor activity against P388 Lymphocytic Leukemia system on day 5 at a dose of 480 mg/kg(6 out of 6).
In assay [24] the test system is P388. Put plainly: Number of Survivors determined for antitumor activity against P388 Lymphocytic Leukemia system on day 5 at a dose of 30 mg/kg (6 out of 6).
In assay [25] the test system is P388. Put plainly: Number of Survivors determined for antitumor activity against P388 Lymphocytic Leukemia system on day 5 at a dose of 15 mg/kg (6 out of 6).
Assay [26] deals with P388. Put plainly: Survival rate of the animals determined for antitumor activity against P388 Lymphocytic Leukemia system at a dose of 60 mg/kg.
Assay [27] has as its system P388. Put plainly: Number of Survivors determined for antitumor activity against P388 Lymphocytic Leukemia system on day 5 at a dose of 240 mg/kg (6 out of 6).
Assay [28] relates to P388. Put plainly: Weight difference observed in survivors treated for antitumor activity against P388 Lymphocytic Leukemia system at a dose of 30 mg/kg.
For assay [29], the system named is P388. Briefly: Weight difference observed in survivors treated for antitumor activity against P388 Lymphocytic Leukemia system at a dose of 480 mg/kg.
In assay [30] the test system is P388. Briefly: Weight difference observed in survivors treated for antitumor activity against P388 Lymphocytic Leukemia system at a dose of 15 mg/kg.
For assay [31], the system named is P388. Briefly: Number of Survivors determined for antitumor activity against P388 Lymphocytic Leukemia system on day 5 at a dose of 240 mg/kg ([…]).
For assay [32], the system named is P388. Put plainly: Number of Survivors determined for antitumor activity against P388 Lymphocytic Leukemia system on day 5 at a dose of 42 mg/kg(6 out of 6).
Assay [33] deals with P388. Briefly: Survival rate of the animals determined for antitumor activity against P388 Lymphocytic Leukemia system at a dose of 10.5 mg/kg.
Assay [34] deals with P388. Put plainly: Survival rate of the animals determined for antitumor activity against P388 Lymphocytic Leukemia system at a dose of 21 mg/kg.
For assay [35], the system named is P388. Put plainly: Weight difference observed in survivors treated for antitumor activity against P388 Lymphocytic Leukemia system at a dose of 42 mg/kg.
Assay [36] has as its system P388. Briefly: Number of Survivors determined for antitumor activity against P388 Lymphocytic Leukemia system on day 5 at a dose of 21 mg/kg(6 out of 6).
The test system of assay [37] is P388. Put plainly: Number of Survivors determined for antitumor activity against P388 Lymphocytic Leukemia system on day 5 at a dose of 10.5 mg/kg (6 out of 6).
Assay [38] relates to P388. Briefly: Weight difference observed in survivors treated for antitumor activity against P388 Lymphocytic Leukemia system at a dose of 10.5 mg/kg.
Assay [39] concerns P388. Briefly: Number of Survivors determined for antitumor activity against P388 Lymphocytic Leukemia system on day 5 at a dose of 42 mg/kg.
Assay [40] deals with P388. Briefly: Number of Survivors determined for antitumor activity against P388 Lymphocytic Leukemia system on day 5 at a dose of 84 mg/kg(6 out of 6).
In assay [41] the test system is P388. Put plainly: Weight difference observed in survivors treated for antitumor activity against P388 Lymphocytic Leukemia system at a dose of 84 mg/kg.
In assay [42] the test system is P388. Briefly: Weight difference observed in survivors treated for antitumor activity against P388 Lymphocytic Leukemia system at a dose of 21 mg/kg.
The test system of assay [43] is P388. Briefly: Survival rate of the animals determined for antitumor activity against P388 Lymphocytic Leukemia system at a dose of 84 mg/kg.
The subject of assay [44] is P388. Briefly: Survival rate of the animals determined for antitumor activity against P388 Lymphocytic Leukemia system at a dose of 192 mg/kg.
Assay [45] has as its system P388. Put plainly: Weight difference observed in survivors treated for antitumor activity against P388 Lymphocytic Leukemia system at a dose of 48 mg/kg.
Assay [46] deals with P388. Briefly: Number of Survivors determined for antitumor activity against P388 Lymphocytic Leukemia system on day 5 at a dose of 96 mg/kg(5 out of 6).
Assay [47] has as its system P388. Briefly: Weight difference observed in survivors treated for antitumor activity against P388 Lymphocytic Leukemia system at a dose of 192 mg/kg.
The subject of assay [48] is P388. Briefly: Weight difference observed in survivors treated for antitumor activity against P388 Lymphocytic Leukemia system at a dose of 24 mg/kg.
The test system of assay [49] is P388. Briefly: Survival rate of the animals determined for antitumor activity against P388 Lymphocytic Leukemia system at a dose of 96 mg/kg.
For assay [50], the system named is P388. Briefly: Weight difference observed in survivors treated for antitumor activity against P388 Lymphocytic Leukemia system at a dose of 96 mg/kg.
Assay [51] has as its system P388. Briefly: Survival rate of the animals determined for antitumor activity against P388 Lymphocytic Leukemia system at a dose of 48 mg/kg.

With `CC(O)C(C)(O)C(=O)OCC1=CC[N+]2([O-])CC[C@@H](O)[C@@H]12` (stereo partly drawn), the T/C with P388 [1] is listed as 117%; in the assay with P388 [2], 127%; with P388 [4], 115%; in the assay on P388 [7], 131%. Besides, the T-C with P388 [3] is -0.4; in the assay on P388 [6], -0.4; in the assay on P388 [10], 0; with P388 [11] it was -0.3. For the same compound, the Survivors in the assay with P388 [5], in the assay with P388 [8], with P388 [9] and in the assay with P388 [12] was 6 in each case.

For the compound `CC(C)CC(=O)OCC1=CCN2CC[C@@H](O)[C@@H]12`, the T/C is 114% with P388 [13]; 108% in the assay with P388 [18]; 108% in the assay with P388 [19]; 109% in the assay with P388 [20]; 105% in the assay on P388 [21]; 105% with P388 [26]. The T-C in the assay on P388 [14] is -0.4; in the assay on P388 [16], -0.1; in the assay on P388 [17], -0.8; with P388 [28], -0.3; in the assay on P388 [29], -2.7; with P388 [30], -0.6. Also, the Survivors with P388 [15], with P388 [22], with P388 [23], in the assay on P388 [24], with P388 [25] and in the assay on P388 [27] was 6 in each case.

As to `O=C(Cc1ccccc1)OCC1=CCN2CC[C@@H](O)[C@@H]12`, the T/C is listed as 116% in the assay on P388 [13]; 109% in the assay with P388 [18]; 105% in the assay on P388 [19]; 99% in the assay on P388 [20]; 97% in the assay with P388 [21]; 97% in the assay with P388 [26]. For the same compound, the T-C is recorded as -0.3 with P388 [14]; -0.6 in the assay with P388 [16]; -0.1 in the assay on P388 [17]; -0.5 in the assay with P388 [28]; -2.1 in the assay with P388 [29]; -0.8 in the assay on P388 [30]. Further, the Survivors in the assay with P388 [15], in the assay with P388 [31], in the assay on P388 [22], in the assay with P388 [23], in the assay with P388 [24] and in the assay with P388 [25] was 6 each time.

For `O=C(Cc1ccccc1)OCC1=CC[N+]2([O-])CC[C@@H](O)C12.O=C(OCC1=CC[N+]2([O-])CC[C@@H](O)C12)c1ccccc1` (stereo partly drawn), the Survivors in the assay with P388 [32], in the assay with P388 [36], in the assay with P388 [37] and in the assay on P388 [40] was 6 each time. Besides, the T/C was 104% with P388 [33], 108% with P388 [34], 117% with P388 [39] and 114% in the assay on P388 [43]. The T-C is recorded as 0.3 with P388 [35], 0 in the assay on P388 [38], 0.1 with P388 [41] and -0.1 in the assay on P388 [42].

Regarding `CC(C)C(O)(C(=O)OCC1=CC[N+]2([O-])CC[C@@H](O)C12)C(C)O` (stereo in doubt; form 2), the T/C in the assay on P388 [44] was determined as 118%; in the assay on P388 [49] it was 116%; with P388 [51], 100%. Moreover, the T-C with P388 [45] is recorded as 1.3; in the assay on P388 [47] it was -4.8; in the assay on P388 [48], -0.4; with P388 [50], 0.1. The compound also had a Survivors with P388 [46] of 5.
